These results are taken from patent publication US10138228B2, “Isoxazole derivatives as FXR agonists and methods of use therof” (Enanta Pharmaceuticals, Inc., priority 2016, dated 2018).

Broadly, the EC50 is the concentration at which the effect is half-maximal. High values mean a less potent agent, low ones a more potent agent.

The assay has as its target human FXR (NR1H4) (Homo sapiens (Human), UniProt Q96RI1). Nature of the assay: Human FXR (NR1H4) Assay (Gal4 promoter driven luciferase reporter, CHO cells). In kind it is cell-based. The settings on record: CHO reporter cells expressing human NR1H4; for EC50: 22 hours incubation, potency ranges; for Efficacy (%): normalized to CDCA set as 100%. The text has this: Human FXR (NR1H4) Assay Determination of a ligand mediated Gal4 promoter driven transactivation to quantify ligand binding mediated activation of FXR. FXR Reporter Assay kit purchased from Indigo Bioscience (Catalogue number: IB00601) to determine the potency and efficacy of compound developed by Enanta that can induce FXR activation. The principle application of this reporter assay system is to quantify functional activity of human FXR. The assay utilizes non-human mammalian cells, CHO (Chinese hamster ovary) cells engineered to express human NR1H4 protein (referred to as FXR). Reporter cells also incorporate the cDNA encoding beetle luciferase which catalyzes the substrates and yields photon emission. Luminescence intensity of the reaction is quantified using a plate-reading luminometer, Envision. Reporter Cells include the luciferase reporter gene functionally linked to an FXR responsive promoter. Thus, quantifying changes in luciferase expression in the treated reporter cells provides a sensitive surrogate measure of the changes in FXR activity. […] The assay is according to the manufacturer's instructions. In brief, the assay was performed in white, 96 well plates using final volume of 100 μl containing cells with different doses of compounds. Retrieve Reporter Cells from −80° C. storage. Perform a rapid thaw of the frozen cells by transferring a 10 ml volume of 37° C. cell recovery medium into the tube of frozen cells. Recap the tube of Reporter Cells and immediately place it in a 37° C. water bath for 5-10 minutes. Retrieve the tube of Reporter Cell Suspension from the water bath. Sanitize the outside surface of the tube with a 70% alcohol swab, and then transfer it into the cell culture hood. Dispense 90 μl of cell suspension into each well of the 96-well Assay Plate. Transfer the plate into 37° C. incubator, allowing the cells adherent to the bottom of the well. Dilute compounds in Dilution Plate (DP), and administrate to cells at Assay Plate (AP). DMSO content of the samples was kept at 0.2%. Cells were incubated for additional 22 hours before luciferase activities were measured. Thirty minutes before intending to quantify FXR activity, remove Detection Substrate and Detection Buffer from the refrigerator and place them in a low-light area so that they may equilibrate to room temperature. Remove the plate's lid and discard all media contents by ejecting it into an appropriate waste container. Gently tap the inverted plate onto a clean absorbent paper towel to remove residual droplets. Cells will remain tightly adhered to well bottoms. Add 100 μl of luciferase detection reagent to each well of the assay plate. Allow the assay plate to rest at room temperature for at least 5 minutes following the addition of LDR. Set the instrument (Envision) to perform a single 5 second “plate shake” prior to reading the first assay well. Read time may be 0.5 second (500 mSec) per well.
A general note: In a reporter assay the amount or activity of a reporter protein is the signal.

Sequence of human FXR (NR1H4) (Q96RI1 whole entry, the tested form may be a part): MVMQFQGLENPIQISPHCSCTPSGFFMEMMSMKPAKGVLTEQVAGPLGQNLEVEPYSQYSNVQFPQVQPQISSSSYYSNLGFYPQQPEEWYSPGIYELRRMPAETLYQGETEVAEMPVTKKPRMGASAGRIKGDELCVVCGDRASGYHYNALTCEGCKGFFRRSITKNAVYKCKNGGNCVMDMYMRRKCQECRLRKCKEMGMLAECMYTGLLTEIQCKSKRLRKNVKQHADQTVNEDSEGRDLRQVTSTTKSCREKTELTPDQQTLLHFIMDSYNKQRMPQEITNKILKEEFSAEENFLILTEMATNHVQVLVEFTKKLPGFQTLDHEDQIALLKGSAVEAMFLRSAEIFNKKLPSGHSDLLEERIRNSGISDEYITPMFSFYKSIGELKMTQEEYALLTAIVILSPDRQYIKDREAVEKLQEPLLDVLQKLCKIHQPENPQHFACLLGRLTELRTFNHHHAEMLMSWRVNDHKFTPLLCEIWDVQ

As for `CN(Cc1ccc(C(=O)NS(=O)(=O)C2CC2)cc1)c1ccc(OCc2c(-c3c(Cl)cccc3Cl)noc2C2CC2)nc1C(F)(F)F` [Example 1], the EC50 was in the range of 100 to 1000 nM and the “Efficacy (%)” value stood at 145%.

For `CN(Cc1ccc(C(=O)NS(=O)(=O)c2ccc(C(C)(C)C)cc2)cc1)c1ccc(OCc2c(-c3c(Cl)cccc3Cl)noc2C2CC2)nc1C(F)(F)F` [Example 2], the concentration giving a half-maximal response (EC50) was 1000 to 10000 nM and the “Efficacy (%)” value came to 108%.

Turning to `CN(Cc1ccc(C(=O)NS(=O)(=O)N(C)C)cc1)c1ccc(OCc2c(-c3c(Cl)cccc3Cl)noc2C2CC2)nc1C(F)(F)F` [Example 3], the “Efficacy (%)” value was 153%.
